Inconclusive results and toxic doses are left out. How the source made its calls: active means survival T/C of 150% or more; inactive means T/C below 125% in these data.
Test system: P388 leukemia ip, CD2F1 mice, survival T/C
Assay: NCI In Vivo Anticancer Drug Screen. Data for tumor model P388 Leukemia (intraperitoneal) in CD2F1 (CDF1) mice
Conditions: endpoint: median survival time, higher = longer survival
Outline: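 Mice carrying the transplanted tumor received test compound or vehicle. Survival was recorded in each group, and the value is the treated-group measurement divided by that of the vehicle-treated control group.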

[1] = dose: 50.0 mg/kg/injection, schedule: Q01DX009 (ip), vehicle: saline with Tween-80
[2] = dose: 100.0 mg/kg/injection, schedule: Q01DX009 (ip), vehicle: saline with Tween-80
[3] = dose: 200.0 mg/kg/injection, schedule: Q01DX009 (ip), vehicle: saline with Tween-80
[4] = dose: 50.0 mg/kg/injection, schedule: Q01DX009 (ip), vehicle: Klucel (hydroxypropylcellulose) (HPC)
[5] = dose: 100.0 mg/kg/injection, schedule: Q01DX009 (ip), vehicle: Klucel (hydroxypropylcellulose) (HPC)
[6] = dose: 200.0 mg/kg/injection, schedule: Q01DX009 (ip), vehicle: Klucel (hydroxypropylcellulose) (HPC)
[7] = dose: 50.0 mg/kg/injection, schedule: Q01DX005 (ip), vehicle: saline with Tween-80
[8] = dose: 60.0 mg/kg/injection, schedule: Q01DX005 (ip), vehicle: saline with Tween-80
[9] = dose: 120.0 mg/kg/injection, schedule: Q01DX005 (ip), vehicle: saline with Tween-80
[10] = dose: 240.0 mg/kg/injection, schedule: Q01DX005 (ip), vehicle: saline with Tween-80
[11] = dose: 12.5 mg/kg/injection, schedule: Q01DX009 (ip), vehicle: saline
[12] = dose: 25.0 mg/kg/injection, schedule: Q01DX009 (ip), vehicle: saline
[13] = dose: 50.0 mg/kg/injection, schedule: Q01DX009 (ip), vehicle: saline
[14] = dose: 6.25 mg/kg/injection, schedule: Q01DX009 (ip), vehicle: saline
[15] = dose: 50.0 mg/kg/injection, schedule: Q01DX005 (ip), vehicle: Klucel (hydroxypropylcellulose) (HPC)
[16] = dose: 100.0 mg/kg/injection, schedule: Q01DX005 (ip), vehicle: Klucel (hydroxypropylcellulose) (HPC)
[17] = dose: 200.0 mg/kg/injection, schedule: Q01DX005 (ip), vehicle: Klucel (hydroxypropylcellulose) (HPC)

Measured: T/C

COC(=O)C(=O)c1ccccc1
inactive: [1] 107 % of control | [2] 101 % of control | [3] 99 % of control | dose: 400.0 mg/kg/injection, schedule: Q01DX009 (ip), vehicle: saline with Tween-80 99 % of control

NC(Cc1ccc2ccccc2c1Cl)C(=O)O (stereo not drawn)
inactive: [4] 102 % of control | [5] 100 % of control | [6] 100 % of control

O=C1CCc2ccccc2C1C(=O)CC(O)(c1ccccc1)c1ccccc1 (stereo not drawn)
inactive: dose: 12.5 mg/kg/injection, schedule: Q01DX009 (ip), vehicle: saline sonified 95 % of control | dose: 25.0 mg/kg/injection, schedule: Q01DX009 (ip), vehicle: saline sonified 100 % of control | dose: 50.0 mg/kg/injection, schedule: Q01DX009 (ip), vehicle: saline sonified 95 % of control

N#CC(c1ccccc1)c1cnccn1 (stereo not drawn)
inactive: dose: 25.0 mg/kg/injection, schedule: Q01DX005 (ip), vehicle: saline with Tween-80 102 % of control | [7] 100 % of control

NS(=O)(=O)c1ccc(NC(=O)c2cccnc2Nc2cccc(Cl)c2)cc1
inactive: [8] 103 % of control | [9] 102 % of control | [10] 101 % of control

CC(C)C1=CC2=CCC3C(C)(C(=O)O)CCCC3(C)C2CC1.[Ni] (stereo not drawn)
inactive: [11] 95 % of control | [12] 88 % of control | [13] 88 % of control

CCCCCCN(CCCCCC)CC(O)c1ccc(Cl)c2ccccc12 (stereo not drawn)
inactive: [7] 115 % of control | dose: 100.0 mg/kg/injection, schedule: Q01DX005 (ip), vehicle: saline with Tween-80 101 % of control | dose: 200.0 mg/kg/injection, schedule: Q01DX005 (ip), vehicle: saline with Tween-80 92 % of control

CCOC(=O)C(C(C)=O)C(=O)C(C)(C)C (stereo not drawn)
inactive: [14] 112 % of control | [11] 102 % of control | [12] 102 % of control | [2] 91 % of control | [3] 104 % of control

NCCNCC(O)CO (stereo not drawn)
inactive: dose: 50.0 mg/kg/injection, schedule: Q01DX005 (ip), vehicle: saline + Tween-80 + alcohol 102 % of control | dose: 100.0 mg/kg/injection, schedule: Q01DX005 (ip), vehicle: saline + Tween-80 + alcohol 102 % of control | dose: 200.0 mg/kg/injection, schedule: Q01DX005 (ip), vehicle: saline + Tween-80 + alcohol 99 % of control

COc1ccc2c3c([nH]c2c1)[C@H]1C[C@H]2[C@H](C[C@@H](O)[C@H](OC)[C@H]2CO)CN1CC3
inactive: [15] 104 % of control | [16] 95 % of control | [17] 90 % of control

CC(C)=CCc1cc(C2COc3cc4c(c(O)c3C2=O)C=CC(C)(C)O4)c(O)cc1O (stereo not drawn)
inactive: dose: 8.0 mg/kg/injection, schedule: Q01DX009 (ip), vehicle: Klucel (hydroxypropylcellulose) (HPC) 98 % of control | dose: 16.0 mg/kg/injection, schedule: Q01DX009 (ip), vehicle: Klucel (hydroxypropylcellulose) (HPC) 101 % of control | dose: 32.0 mg/kg/injection, schedule: Q01DX009 (ip), vehicle: Klucel (hydroxypropylcellulose) (HPC) 100 % of control | dose: 64.0 mg/kg/injection, schedule: Q01DX009 (ip), vehicle: Klucel (hydroxypropylcellulose) (HPC) 98 % of control

CC(=O)OC(C)N(C(C)=O)c1ncc([N+](=O)[O-])s1 (stereo not drawn)
inactive: dose: 25.0 mg/kg/injection, schedule: Q01DX009 (ip), vehicle: saline with Tween-80 100 % of control | [1] 101 % of control | [2] 106 % of control | [3] 110 % of control

COC(=O)CC1(C(=O)OC)c2ccc3c(C(=O)C(F)(F)F)cccc3c2N2CCCC21 (stereo not drawn)
inactive: dose: 100.0 mg/kg/injection, schedule: Q04DX002 (ip), vehicle: saline 101 % of control | dose: 200.0 mg/kg/injection, schedule: Q04DX002 (ip), vehicle: saline 102 % of control | dose: 400.0 mg/kg/injection, schedule: Q04DX002 (ip), vehicle: saline 102 % of control

Nc1c2c(c(N)c3c1C(=O)c1ccccc1C3=O)OCO2
inactive: [8] 100 % of control | [9] 98 % of control | [10] 98 % of control

O=c1[nH]c2c([N+](=O)[O-])cc(Cl)cc2nc1/C=C(\O)c1ccc(F)cc1
inactive: [8] 101 % of control | [9] 102 % of control | [10] 106 % of control

CCOC(=O)c1ccc(NC(=S)P(=O)(c2ccccc2)c2ccccc2)cc1
inactive: [4] 88 % of control | [5] 89 % of control | [6] 94 % of control

Cn1cnc([N+](=O)[O-])c1Sc1ncccc1C(=O)O
inactive: [15] 112 % of control | [16] 114 % of control | [17] 105 % of control

OCC1OC(SC2OC(CO)C(O)C(O)C2O)C(O)C(O)C1O (stereo not drawn)
inactive: dose: 100.0 mg/kg/injection, schedule: Q01DX001 (ip), vehicle: water 114 % of control | dose: 200.0 mg/kg/injection, schedule: Q01DX001 (ip), vehicle: water 94 % of control | dose: 400.0 mg/kg/injection, schedule: Q01DX001 (ip), vehicle: water 100 % of control

O=C(/C=C/c1ccc(OCc2ccccc2)cc1)c1ccccc1[N+](=O)[O-]
inactive: [1] 104 % of control | [2] 101 % of control | [3] 92 % of control

CCCCCCCCCC#CC(=O)OC
inactive: [13] 105 % of control | dose: 100.0 mg/kg/injection, schedule: Q01DX009 (ip), vehicle: saline 105 % of control | dose: 200.0 mg/kg/injection, schedule: Q01DX009 (ip), vehicle: saline 105 % of control

Nc1nc(-c2ccccn2)cc2ccccc12
inactive: [8] 105 % of control | [9] 100 % of control

Cc1ccc(S(=O)(=O)NC(CC(=O)OCc2ccccc2)C(=O)OCc2ccccc2)cc1 (stereo not drawn)
inactive: [1] 101 % of control | [2] 86 % of control | [3] 90 % of control

NC(=O)/C(N=Nc1ccccc1C(=O)O)=N\Nc1ccccc1C(=O)O
inactive: [15] 94 % of control | [16] 95 % of control | [17] 103 % of control

C=C(CN(C)C)C(=O)c1ccc(C(=O)C(=C)CN(C)C)cc1
inactive: dose: 0.78 mg/kg/injection, schedule: Q01DX005 (ip), vehicle: saline 105 % of control | dose: 1.56 mg/kg/injection, schedule: Q01DX005 (ip), vehicle: saline 107 % of control | dose: 3.12 mg/kg/injection, schedule: Q01DX005 (ip), vehicle: saline 108 % of control

COc1ccc2nc(-c3ccccn3)ccc2c1
inactive: dose: 25.0 mg/kg/injection, schedule: Q01DX009 (ip), vehicle: distilled water + Tween-80 106 % of control | dose: 50.0 mg/kg/injection, schedule: Q01DX009 (ip), vehicle: distilled water + Tween-80 106 % of control | dose: 100.0 mg/kg/injection, schedule: Q01DX009 (ip), vehicle: distilled water + Tween-80 101 % of control | dose: 200.0 mg/kg/injection, schedule: Q01DX009 (ip), vehicle: distilled water + Tween-80 93 % of control | dose: 400.0 mg/kg/injection, schedule: Q01DX009 (ip), vehicle: distilled water + Tween-80 92 % of control

C[CH2][Sn][Cl]
inactive: [14] 98 % of control | [11] 98 % of control | [12] 91 % of control

O=C(O)C12CCC(c3ccccc31)c1ccccc12
inactive: [8] 101 % of control | [9] 107 % of control | [10] 100 % of control

C[n+]1c2ccccc2c(N=[N+]=[N-])c2ccccc21
inactive: [14] 100 % of control | [11] 98 % of control | [12] 105 % of control | [13] 109 % of control

COP1(=O)CC(=O)C(C)(C)N1C (stereo not drawn)
inactive: [15] 101 % of control | [16] 107 % of control | [17] 111 % of control

Source: PubChem BioAssay AID330 (DTP/NCI, 2004)
